The data set is described as follows: Dynamic Vapour Sorption (DVS) moisture sorption isotherm. In kind it is physicochemical. To be noted: for total uptake of water vapours: DVS, 25° C., relative humidity 0% to 95% in steps of 5%, 1 h per step, sorption-desorption cycle. As for the experimental part: Moisture sorption isotherms were measured using a DVS-1 system of Surface Measurement Systems (London, UK). Differences in moisture uptake of various forms of a solid material indicate differences in the relative stabilities of the various solid forms for increasing relative humidity. The experiment was carried out at a constant temperature of 25° C.
A sample of about 11.5 mg of form TDFA 2:1 was spread in the DVS pan. The sample was dried at 0% RH for 7 h. Subsequently the relative humidity of the chamber was increased in steps of 5% units from 0% to 95% in order to monitor the sorption of water vapours. The samples remained in each of the steps for 1 h. Following, desorption was monitored by decreasing the relative humidity to 0% in steps of 5% units and remaining at each step for 1 h. The total uptake of water vapours was about 0.8%, which is line with the industry standard for hygroscopicity. In a similar DVS experiment using the starting material as purchased, the total vapour intake was about 4%, which is undesirable in formulation and requires additional measures.

Structures are written as SMILES. Counter-ions that a name gives are not always drawn.

For `CC(C)OC(=O)OCOP(=O)(CO[C@H](C)Cn1cnc2c(N)ncnc21)OCOC(=O)OC(C)C` [starting material, 9-[(R)-2-[[bis[[(isopropoxycarbonyl)oxy]methoxy]phosphinyl]-methoxy]propyl] adenine fumarate (1:1), reference compound], the “total uptake of water vapours” value is given as “about 4%”.

As to `CC(C)OC(=O)OCOP(=O)(CO[C@H](C)Cn1cnc2c(N)ncnc21)OCOC(=O)OC(C)C.CC(C)OC(=O)OCOP(=O)(CO[C@H](C)Cn1cnc2c(N)ncnc21)OCOC(=O)OC(C)C.O=C(O)/C=C/C(=O)O` [TDFA 2:1, co-crystal of tenofovir disoproxil and fumaric acid in a 2:1 molar ratio], the “total uptake of water vapours” value is reported as “about 0.8%”. Also, the “changes in the structure by XRPD at the end of the DVS experiment” value (solid material measured by XRPD after the DVS sorption-desorption cycle (FIG. 4)) is “no any changes in the structure”.

For the origin of these results see patent US20090270352A1, “Tenofovir Disoproxil Hemi-Fumaric Acid Co-Crystal” (ULTIMORPHIX TECHNOLOGIES B.V., priority 2007, published 2009).
